# Measured values from US9102621B2, “Acyl sulfonamide compounds” (Pfizer Limited, priority 2010, dated 2015).
# Where a name gives a salt, the structure may show the parent alone.
# Molecular target: T1, Nav1.7 (or SCN9A) channel (Homo sapiens, UniProt Q15858)
# T1 construct: expressed in transfected cells
# Experiment: Nav1.7 (hSCN9A) channel block, PatchXpress whole-cell electrophysiology
# Assay type: cell-based
# Details: PatchXpress platform; HEK cells stably transfected with hSCN9A; estimated IC-50 calculated from single point % inhibition at V1/2; read-out: Nav1.7 EIC50
# Procedure: The ability of the compounds of formula (I) to block the Nav1.7 (or SCN9A) channel were measured using the assay described below.
# Human Embryonic Kidney (HEK) cells were transfected with an hSCN9A construct using lipofectamine reagent (Invitrogen), using standard techniques. Cells stably expressing the hSCN9A constructs were identified by their resistance to G-418 (400 μg/ml). Clones were screened for expression using the whole-cell voltage-clamp technique.
# HEK cells stably transfected with hSCN9A were maintained in DMEM medium supplemented with 10% heat-inactivated fetal bovine serum and 400 μg/ml G-418 in an incubator at 37° C. with a humidified atmosphere of 10% CO2. For HTS, cells were harvested from flasks by trypsinization and replated in an appropriate multi-well plate (typically 96 or 384 wells/plate) such that confluence would be achieved within 24 hours of plating. For electrophysiological studies, cells were removed from the culture flask by brief trypsinization and re-plated at low density onto glass cover slips. Cells were typically used for electrophysiological experiments within 24 to 72 hours after plating.
# Cover slips containing HEK cells expressing hSCN9A were placed in a bath on the stage of an inverted microscope and perfused (approximately 1 ml/minutes) with extracellular solution of the following composition: 138 mM NaCl, 2 mM CaCl2, 5.4 mM KCl, 1 mM MgCl2, 10 mM glucose, and 10 mM HEPES, pH 7.4, with NaOH. […] The osmolarity of the extracellular and intracellular solutions was 300 mOsm/kg and 295 mOsm/kg, respectively. All recordings were made at room temperature (22-24° C.) using AXOPATCH 200B amplifiers and PCLAMP software (Axon Instruments, Burlingame, Calif.).
# hSCN9A currents in HEK cells were measured using the whole-cell configuration of the patch-clamp technique (Hamill et al., 1981). Uncompensated series resistance was typically 2 to 5 mega ohms and >85% series resistance compensation was routinely achieved. As a result, voltage errors were negligible and no correction was applied. Current records were acquired at 20 to 50 KHz and filtered at 5 to 10 KHz.
# HEK cells stably transfected with hSCN9A were viewed under Hoffman contrast optics and placed in front of an array of flow pipes emitting either control or compound-containing extracellular solutions. All compounds were dissolved in dimethyl sulfoxide to make 10 mM stock solutions, which were then diluted into extracellular solution to attain the final concentrations desired. […] The voltage-dependence of inactivation was determined by applying a series of depolarizing prepulses (8 sec long in 10 mV increments) from a negative holding potential. The voltage was then immediately stepped to 0 mV to assess the magnitude of the sodium current. Currents elicited at 0 mV were plotted as a function of prepulse potential to allow estimation of the voltage at which 50% of the channels were inactivated (midpoint of inactivation or V1/2). Compounds were tested for their ability to inhibit hSCN9A sodium channels by activating the channel with a 20 msec voltage step to 0 mV following an 8 second conditioning prepulse to the empirically determined V1/2. Compound effect (% inhibition) was determined by difference in current amplitude before and after application of test compounds. […] Inhibition values <20% and >80% were excluded from the calculation.
# Electrophysiological assays were conducted with PatchXpress 7000 hardware and associated software (Molecular Devices Corp). All assay buffers and solutions were identical to those used in conventional whole-cell voltage clamp experiments described above. hSCN9A cells were grown as above to 50%-80% confluency and harvested by trypsinization. Trypsinized cells were washed and resuspended in extracellular buffer at a concentration of 1×10^6 cells/ml. The onboard liquid handling facility of the PatchXpress was used for dispensing cells and application of test compounds. […]
# T1 sequence (Q15858 whole entry): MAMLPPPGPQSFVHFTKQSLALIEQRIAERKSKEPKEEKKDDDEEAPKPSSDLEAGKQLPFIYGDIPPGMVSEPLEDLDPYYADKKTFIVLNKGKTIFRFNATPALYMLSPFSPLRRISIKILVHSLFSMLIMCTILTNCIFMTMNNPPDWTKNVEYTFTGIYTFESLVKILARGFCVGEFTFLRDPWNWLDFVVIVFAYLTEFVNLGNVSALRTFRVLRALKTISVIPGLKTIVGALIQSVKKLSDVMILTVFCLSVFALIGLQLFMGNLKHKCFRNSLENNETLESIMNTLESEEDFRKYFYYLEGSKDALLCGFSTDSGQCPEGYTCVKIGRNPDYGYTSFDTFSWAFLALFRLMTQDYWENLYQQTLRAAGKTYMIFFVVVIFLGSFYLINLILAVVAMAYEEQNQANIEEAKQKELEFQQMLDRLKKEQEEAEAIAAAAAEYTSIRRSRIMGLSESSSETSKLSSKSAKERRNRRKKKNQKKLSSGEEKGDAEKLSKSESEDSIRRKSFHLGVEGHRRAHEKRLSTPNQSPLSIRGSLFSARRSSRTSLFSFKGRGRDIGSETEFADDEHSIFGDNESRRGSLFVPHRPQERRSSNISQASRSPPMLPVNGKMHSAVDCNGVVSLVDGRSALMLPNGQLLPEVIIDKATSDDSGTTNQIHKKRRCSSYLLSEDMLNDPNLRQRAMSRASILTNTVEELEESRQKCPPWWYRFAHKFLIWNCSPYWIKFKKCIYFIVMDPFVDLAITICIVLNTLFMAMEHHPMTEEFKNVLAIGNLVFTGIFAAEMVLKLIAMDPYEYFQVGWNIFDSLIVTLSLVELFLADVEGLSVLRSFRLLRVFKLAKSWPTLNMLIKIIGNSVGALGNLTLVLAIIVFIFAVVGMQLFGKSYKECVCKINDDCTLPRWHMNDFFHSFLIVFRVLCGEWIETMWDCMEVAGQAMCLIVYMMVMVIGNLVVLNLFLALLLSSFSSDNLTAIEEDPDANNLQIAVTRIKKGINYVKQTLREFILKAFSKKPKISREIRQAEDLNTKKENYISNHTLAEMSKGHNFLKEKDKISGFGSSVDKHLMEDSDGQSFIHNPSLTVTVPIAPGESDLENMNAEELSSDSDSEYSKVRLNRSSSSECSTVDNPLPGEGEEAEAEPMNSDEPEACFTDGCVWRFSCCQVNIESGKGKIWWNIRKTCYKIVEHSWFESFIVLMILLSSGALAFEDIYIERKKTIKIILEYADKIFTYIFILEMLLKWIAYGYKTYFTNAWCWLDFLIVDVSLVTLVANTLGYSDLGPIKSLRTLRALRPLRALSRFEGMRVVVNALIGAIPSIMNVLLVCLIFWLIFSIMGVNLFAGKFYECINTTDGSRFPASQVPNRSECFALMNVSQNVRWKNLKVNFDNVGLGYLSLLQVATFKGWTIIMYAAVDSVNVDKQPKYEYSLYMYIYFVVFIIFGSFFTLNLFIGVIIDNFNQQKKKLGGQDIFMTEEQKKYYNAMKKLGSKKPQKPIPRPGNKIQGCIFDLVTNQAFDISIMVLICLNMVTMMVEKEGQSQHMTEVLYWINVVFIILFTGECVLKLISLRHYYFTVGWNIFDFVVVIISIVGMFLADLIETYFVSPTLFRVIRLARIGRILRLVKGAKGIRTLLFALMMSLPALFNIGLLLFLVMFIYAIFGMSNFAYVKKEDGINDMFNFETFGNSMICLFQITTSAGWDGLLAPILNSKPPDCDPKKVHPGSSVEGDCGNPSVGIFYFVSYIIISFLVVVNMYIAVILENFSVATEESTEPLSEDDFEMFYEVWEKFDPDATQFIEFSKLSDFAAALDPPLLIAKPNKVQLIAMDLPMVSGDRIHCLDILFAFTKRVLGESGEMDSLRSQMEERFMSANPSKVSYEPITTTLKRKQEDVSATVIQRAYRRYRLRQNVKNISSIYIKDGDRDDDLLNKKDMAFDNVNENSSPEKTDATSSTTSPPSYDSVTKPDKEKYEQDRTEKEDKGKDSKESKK
row,SMILES,IC50 [nM]
1,"CC(C)COc1ncc(OCc2cc(F)c(C(=O)NS(C)(=O)=O)cc2F)cc1Cl [Example 1, 4-{[(5-Chloro-6-isobutoxypyridin-3-yl)oxy]methy}-2,5-difluoro-N-(methylsulfonyl)benzamide diethylamine salt]",13.9
2,"CC(C)COc1ncc(OCc2ccc(C(=O)NS(C)(=O)=O)cc2)cc1Cl [Example 3, 4-{[(5-Chloro-6-isobutoxypyridin-3-yl)oxy]methyl}-N-(methylsulfonyl)benzamide diethylamine salt]",324
3,"COc1ncc(OCc2cc(F)c(C(=O)NS(=O)(=O)C3CC3)cc2F)cc1Cl [Example 4, 4-((5-Chloro-6-methoxypyridin-3-yloxy)methyl)-N-(cyclopropylsulfonyl)-2,5-difluorobenzamide]",2600
4,"COc1cc(C(=O)NS(C)(=O)=O)ccc1COc1cnc(OCC(C)C)c(Cl)c1 [Example 5, 4-((5-Chloro-6-isobutoxypyridin-3-yloxy)methyl)-3-methoxy-N-(methylsulfonyl)benzamide diethylamine salt]",281
5,"COc1ncc(OCc2ccc(C(=O)NS(C)(=O)=O)cc2)cc1Cl [Example 6, 4-((5-Chloro-6-methoxypyridin-3-yloxy)methyl)-N-(methylsulfonyl)benzamide]",3580
6,"COc1ccc(OCc2ccc(C(=O)NS(C)(=O)=O)cc2)cn1 [Example 7, 4-{[(6-Methoxypyridin-3-yl)oxy]methyl}-N-(methylsulfonyl)benzamide]",35700
7,"CS(=O)(=O)NC(=O)c1ccc(OCc2ccc(C(F)(F)F)nc2)cc1 [Example 9, N-(methylsulfonyl)-4-{[6-(trifluoromethyl)pyridin-3-yl]methoxy}benzamide formate salt]",> 1000
8,"CS(=O)(=O)NC(=O)c1ccc(COc2cncc(Cl)c2)cc1 [Example 10, 4-((5-Chloropyridin-3-yloxy)methyl)-N-(methylsulfonyl)benzamide]",8460
9,"CS(=O)(=O)NC(=O)c1cc(F)c(COc2cnc(OCCC(F)(F)F)c(Cl)c2)cc1F [Example 11, 4-({[5-Chloro-6-(3,3,3-trifluoropropoxy)pyridin-3-yl]oxy}methyl)-2,5-difluoro-N-(methylsulfonyl)benzamide]",39.2
10,"CS(=O)(=O)NC(=O)c1cc(F)c(COc2cnc(C(F)(F)F)c(Cl)c2)cc1F [Example 12, 4-({[5-Chloro-6-(trifluoromethyl)pyridin-3-yl]oxy}methyl)-2,5-difluoro-N-(methylsulfonyl)benzamide]",843
11,"CC(C)(F)COc1ncc(OCc2cc(F)c(C(=O)NS(C)(=O)=O)cc2F)cc1Cl [Example 13, 4-((5-Chloro-6-(2-fluoro-2-methylpropoxy)pyridin-3-yloxy)methyl)-2,5-difluoro-N-(methylsulfonyl)benzamide]",81.4
12,"CC1(COc2ncc(OCc3cc(F)c(C(=O)NS(C)(=O)=O)cc3F)cc2Cl)CC1 [Example 14, 4-((5-Chloro-6-((1-methylcyclopropyl)methoxy)pyridin-3-yloxy)methyl)-2,5-difluoro-N-(methylsulfonyl)benzamide]",66.8
13,[2H]C([2H])([2H])C(Oc1ncc(OCc2cc(F)c(C(=O)NS(C)(=O)=O)cc2F)cc1Cl)(C([2H])([2H])[2H])C([2H])([2H])[2H] [Example 15],30.8
14,"CS(=O)(=O)NC(=O)c1cc(F)c(COc2cnc(OCC(F)(F)F)c(Cl)c2)cc1F [Example 16, 4-((5-Chloro-6-(2,2,2-trifluoroethoxy)pyridin-3-yloxy)methyl)-2,5-difluoro-N-(methylsulfonyl)benzamide]",150
15,"CS(=O)(=O)NC(=O)c1cc(F)c(COc2cnc(OCC3CC3)c(Cl)c2)cc1F [Example 17, 4-((5-Chloro-6-(cyclopropylmethoxy)pyridin-3-yloxy)methyl)-2,5-difluoro-N-(methylsulfonyl)benzamide]",156
16,"CC(C)(C)Oc1ncc(OCc2cc(F)c(C(=O)NS(C)(=O)=O)cc2F)cc1Cl [Example 18, 4-((6-tert-Butoxy-5-chloropyridin-3-yloxy)methyl)-2,5-difluoro-N-(methylsulfonyl)benzamide]",80.6
17,"CS(=O)(=O)NC(=O)c1cc(F)c(COc2cnc(OCC3CC(F)(F)C3)c(Cl)c2)cc1F [Example 19, 4-((5-Chloro-6-((3,3-difluorocyclobutyl)methoxy)pyridin-3-yloxy)methyl)-2,5-difluoro-N-(methylsulfonyl)benzamide]",730
18,"CS(=O)(=O)NC(=O)c1cc(F)c(COc2cncc(Cl)c2)cc1F [Example 20, 4-{[(5-Chloropyridin-3-yl)oxy]methyl}-2,5-difluoro-N-(methylsulfonyl)benzamide]",> 3000
19,"[2H]C([2H])([2H])C([2H])(Oc1ncc(OCc2cc(F)c(C(=O)NS(C)(=O)=O)cc2F)cc1Cl)C([2H])([2H])[2H] [Example 21, 4-{[(5-Chloro-6-d7-isopropoxypyridin-3-yl)oxy]methyl}-2,5-difluoro-N-(methylsulfonyl)benzamide]",161
20,"CS(=O)(=O)NC(=O)c1cc(F)c(COc2cnc(OCC(F)(F)C(F)F)c(Cl)c2)cc1F [Example 22, 4-({[5-Chloro-6-(2,2,3,3-tetrafluoropropoxy)pyridin-3-yl]oxy}methyl)-2,5-difluoro-N-(methylsulfonyl)benzamide]",9.2
21,"[2H]C(C)(C)Oc1ncc(OCc2cc(F)c(C(=O)NS(C)(=O)=O)cc2F)cc1Cl [Example 24, 4-{[(5-Chloro-6-d1-isopropoxypyridin-3-yl)oxy]methyl}-2,5-difluoro-N-(methylsulfonyl)benzamide]",140
22,"CS(=O)(=O)NC(=O)c1cc(F)c(COc2cnc(OCC(F)(F)C(F)(F)F)c(Cl)c2)cc1F [Example 25, 4-({[5-Chloro-6-(2,2,3,3,3-pentafluoropropoxy)pyridin-3-yl]oxy}methyl)-2,5-difluoro-N-(methylsulfonyl)benzamide]",18.6
23,"CS(=O)(=O)NC(=O)c1cc(F)c(COc2ccc(C(F)(F)F)nc2)cc1F [Example 26, 2,5-Difluoro-N-(methylsulfonyl)-4-({[6-(trifluoromethyl)pyridin-3-yl]oxy}methyl)benzamide]",4980
24,"CC(Oc1ncc(OCc2cc(F)c(C(=O)NS(C)(=O)=O)cc2F)cc1Cl)C(F)(F)F (stereo not drawn) [Example 27, 4-((5-Chloro-6-(1,1,1-trifluoropropan-2-yloxy)pyridin-3-yloxy)methyl)-2,5-difluoro-N-(methylsulfonyl)benzamide]",42
25,"COc1ncc(OCc2cc(F)c(C(=O)NS(C)(=O)=O)cc2F)cc1Cl [Example 28, 4-((5-Chloro-6-methoxypyridin-3-yloxy)methyl)-2,5-difluoro-N-(methylsulfonyl)benzamide]",7440
26,"CC(C)Oc1ncc(COc2cc(F)c(C(=O)NS(C)(=O)=O)cc2F)cc1Cl [Example 29, 4-((5-Chloro-6-isopropoxypyridin-3-yl)methoxy)-2,5-difluoro-N-(methylsulfonyl)benzamide diethylamine salt]",838
27,"CS(=O)(=O)NC(=O)c1cc(Cl)c(COc2cnc(OC(C(F)(F)F)C(F)(F)F)c(Cl)c2)cc1F [Example 30, 5-Chloro-4-((5-chloro-6-(1,1,1,3,3,3-hexafluoropropan-2-yloxy)pyridin-3-yloxy)methyl)-2-fluoro-N-(methylsulfonyl)benzamide]",< 100
